Experimental data reported in PMC7127338 (Bioorganic & Medicinal Chemistry Letters, 2013).
“Also recorded” adds a separate entry of the source.

How the values were obtained:
[1] = Stability study at −20 °C; assay type: physicochemical
[2] = Stability study at different pH values; assay type: physicochemical; details: 2 days

Structure (SMILES) | Purity after 1 h ([1]; 1 h after purification by column chromatography) [%] | Purity after 13 h ([1]; 13 h (one night) at −20 °C) [%] | Purity after 20 h ([1]; 20 h, −20 °C) [%] | Stability study at pH 5 (degradation) ([2]; pH 5 (acidic)) | Stability study at pH 7 (degradation) ([2]; pH 7 (neutral)) | Stability study at −20 °C (degradation) ([1]; storage at −20 °C)
C[C@H](NP(=O)(Oc1ccccc1)O[C@H]1O[C@H](CO)[C@@H](O)[C@@H]1F)C(=O)OC1CCCCC1 (stereo partly drawn) [compound 14b, 2-deoxy-2-fluoro-D-arabinofuranose 1-O-phenyl-(cyclohexoxy-alaninyl)-phosphate] | 68 | 30 | 8 |  |  | 
C[C@H](NP(=O)(Oc1ccccc1)O[C@H]1O[C@H](CO)[C@@H](O)C1(F)F)C(=O)OC1CCCCC1 (stereo partly drawn) [compound 25c, 2-deoxy-2,2-difluoro-D-ribofuranose 1-O-phenyl-(cyclohexoxy-alaninyl)-phosphate] |  |  |  | no degradation at all after 2 days; also recorded: No degradation observed over 2 days | no degradation at all after 2 days; also recorded: No degradation observed over 2 days | no degradation at all after 4 months; also recorded: No degradation observed after 4 months
